Results published in PubChem BioAssay (NCI).
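The compound was tested at five concentrations on cells cultured in 96-well plates, with a 48-hour exposure period. GI50 is the concentration that inhibits growth by half. TGI: concentration producing complete growth inhibition.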

Tests used:
Test in all cases: NCI tumour cell line growth inhibition, 48 h
HCT-15 colon = test system: HCT-15 colon
HL-60(TB) leukemia = test system: HL-60(TB) leukemia
K-562 leukemia = test system: K-562 leukemia
NCI-H23 lung = test system: NCI-H23 lung
NCI-H522 lung = test system: NCI-H522 lung
RPMI-8226 leukemia = test system: RPMI-8226 leukemia
RXF 393 renal = test system: RXF 393 renal
SNB-75 CNS = test system: SNB-75 CNS
UO-31 renal = test system: UO-31 renal
SK-MEL-28 melanoma = test system: SK-MEL-28 melanoma

Row | Structure (SMILES) | GI50 (HCT-15 colon) [µM] | TGI (HCT-15 colon) [µM] | GI50 (HL-60(TB) leukemia) [µM] | TGI (HL-60(TB) leukemia) [µM] | GI50 (K-562 leukemia) [µM] | TGI (K-562 leukemia) [µM] | GI50 (NCI-H23 lung) [µM] | TGI (NCI-H23 lung) [µM] | GI50 (NCI-H522 lung) [µM] | TGI (NCI-H522 lung) [µM] | GI50 (RPMI-8226 leukemia) [µM] | TGI (RPMI-8226 leukemia) [µM] | GI50 (RXF 393 renal) [µM] | TGI (RXF 393 renal) [µM] | GI50 (SNB-75 CNS) [µM] | TGI (SNB-75 CNS) [µM] | GI50 (UO-31 renal) [µM] | TGI (UO-31 renal) [µM] | TGI (SK-MEL-28 melanoma) [µM] | GI50 (SK-MEL-28 melanoma) [µM]
1 | Cc1ccc(N(CC(=O)Nc2ccc(S(=O)(=O)N3CCC(N4CCCC4)CC3)cc2)S(=O)(=O)c2ccc(Cl)cc2)cc1 | 1.43 | 2.93 | 1.73 | 4.33 | 0.566 | 2.75 | 1.8 | 3.87 | 1.89 | 3.77 | 2.08 | 5.06 | 1.16 | 2.78 | 1.22 | 2.73 | 1.6 | 3.27 | – | –
2 | O=C1Nc2ccc(Cl)cc2/C1=C\c1c(Cl)nc2sccn12 | – | > 100 | – | 33.7 | – | > 100 | – | > 100 | – | > 100 | – | > 100 | – | > 100 | – | > 100 | – | > 100 | > 100 | –
3 | C[N+]1(CCCl)CC[N+](C)(CCCl)CC1 (configuration not stated) | – | > 100 | – | > 100 | – | > 100 | – | > 100 | – | – | – | > 100 | – | > 100 | – | > 100 | – | > 100 | > 100 | –
4 | CCOC(=O)CC1(c2cccc3ccccc23)OC(=O)c2ccccc21 (configuration not stated) | – | > 100 | – | 54.1 | – | > 100 | – | 69.2 | – | 79.8 | – | 64.2 | – | 70.1 | – | 75.8 | – | 65.9 | > 100 | –
5 | O=C(Nc1ccc(-n2ccc3c(NC(=O)c4ccccc4)ncnc32)cc1)Nc1cccc(Cl)c1Cl | 0.156 | 5.42 | 13.6 | > 50 | 0.985 | 6.04 | 1.64 | 11 | 0.972 | 3.11 | 0.646 | 2.76 | 0.796 | 1.79 | 0.777 | 2.71 | 0.786 | 1.56 | 2.45 | 0.99
6 | O=C(O)CC1NCc2cc3ccccc3nc21 (configuration not stated) | – | > 100 | – | > 100 | – | > 100 | – | > 100 | – | > 100 | – | > 100 | – | > 100 | – | > 100 | – | > 100 | > 100 | –
